What was measured:
Type in all cases: cell-based
[1] = system: Hormoconis resinae ATCC# 20495; experiment: Microbial resistance of fuel, plate count
Experimental: (§1) Bacteria. Pseudomonas aeruginosa ATCC# 33988, Yeast: Yarrowia tropicalis ATCC# 48138, and Mold: Hormoconis resinae ATCC# 20495, are sub cultured in Bushnell-Haas broth, and used for the mixed inoculum. The organism concentrations in the mixed inoculum are as follows: Ps. aeruginosa-4.8×10^8 cfu/mL; Y. tropicalis-2.2×10^7 cfu/mL; H. resinae-6.3×10^7 cfu/mL
(§2) Testing is carried out in glass bottles with bakelite screw tops for four weeks. For each fuel sample, the aminoalcohol and then the biocide when present are added at the desired loadings to 130 mL of either diesel or biodiesel fuel with agitation for 5 min. Bushnell-Haas broth (24 mL) is added as the aqueous phase below the diesel fuel. One mL of the mixed inoculum is added. The samples are mixed weekly by turning the bottle upside down 5 times. The organism count listed for day 0 represents the initial organism populations detected in the water bottom after mixing the water bottom and the fuel.
(§3) Microbial survival is measured using the plate count method. Tryptic soy agar is used for Pseudomonas aeruginosa, and Sabouraud dextrose agar with 0.5 ug/ml gentamycin for Yarrowia tropicalis, and bacteriological grade agar 1.5%, with 0.01% potassium tellurite for Hormoconis resinae. Bacteria are incubated at 37° C. for 48 hours, and fungi at 25° C. for 5-7 days.

[2] = system: Yarrowia tropicalis ATCC# 48138; experiment: Microbial resistance of fuel, plate count
Experimental: as §1, §2, §3

[3] = system: Pseudomonas aeruginosa ATCC# 33988; experiment: Microbial resistance of fuel, plate count
Experimental: as §1, §2, §3

[4] = system: mixed inoculum (Ps. aeruginosa, Y. tropicalis, H. resinae); experiment: Microbial resistance of fuel, mixed inoculum (overall statements); settings: diesel fuel
Experimental: as §1, §2, §3

[5] = diesel, aminoalcohol 1500 ppm, Day 0
[6] = diesel, aminoalcohol 1500 ppm, Wk 1
[7] = diesel, aminoalcohol 1500 ppm, Wk 2
[8] = diesel, aminoalcohol 1500 ppm, Wk 3
[9] = diesel, aminoalcohol 1500 ppm, Wk 4
[10] = diesel, aminoalcohol 3000 ppm, Day 0
[11] = diesel, aminoalcohol 3000 ppm, Wk 1
[12] = diesel, aminoalcohol 3000 ppm, Wk 2
[13] = diesel, aminoalcohol 3000 ppm, Wk 3
[14] = diesel, aminoalcohol 3000 ppm, Wk 4
[15] = biodiesel, 3A40 1500 ppm, Week 1
[16] = biodiesel, 3A40 1500 ppm, Week 2
[17] = biodiesel, 3A40 1500 ppm, Week 3
[18] = biodiesel, 3A40 1500 ppm, Week 4
[19] = biodiesel, 3A40 3000 ppm, Week 1
[20] = biodiesel, 3A40 3000 ppm, Week 2
[21] = biodiesel, 3A40 3000 ppm, Week 3
[22] = biodiesel, 3A40 3000 ppm, Week 4

Work on `CC(C)(N)CO` [AMP, 2-Amino-2-methyl-1-propanol, reference compound] yielded a H. resinae count [1, 5] of 4.2E5, a H. resinae count [1, 6] of 3.0E5 and a H. resinae count [1, 7] of 6.4E5. It also gave a H. resinae count [1, 8] of 7.4E5, a H. resinae count [1, 9] of 1.8E6 and a H. resinae count [1, 10] of 4.2E5. It also gave a H. resinae count [1, 11] of 1.2E5, a H. resinae count [1, 12] of 4.5E5 and a H. resinae count [1, 13] of 5.8E5. It also gave a H. resinae count [1, 14] of 3.3E6, a Y. tropicalis count [2, 5] of 3.3E5 and a Y. tropicalis count [2, 6] of 1.3E5. The Y. tropicalis count [2, 7] was 7.2E5, the Y. tropicalis count [2, 8] was 1.3E6 and the Y. tropicalis count [2, 9] was 7.0E6. For the same compound, the Y. tropicalis count [2, 10] was 3.3E5, the Y. tropicalis count [2, 11] was 9.0E4 and the Y. tropicalis count [2, 12] was 2.3E5. It also gave a Y. tropicalis count [2, 13] of 5.2E5, a Y. tropicalis count [2, 14] of 4.3E6 and a Ps. aeruginosa count [3, 5] of 1.4E6. For the same compound, the Ps. aeruginosa count [3, 6] was 8.7E5, the Ps. aeruginosa count [3, 7] was 2.3E6 and the Ps. aeruginosa count [3, 8] was 4.4E6. It also gave a Ps. aeruginosa count [3, 9] of 1.2E7, a Ps. aeruginosa count [3, 10] of 1.4E6 and a Ps. aeruginosa count [3, 11] of 2.2E6. It also gave a Ps. aeruginosa count [3, 12] of 4.0E6, a Ps. aeruginosa count [3, 13] of 6.0E6 and a Ps. aeruginosa count [3, 14] of 4.2E7.
With `CCCCC(O)C(N)CC` (centres unmarked) [Example 3A4O, 3-amino-4-octanol] the synergy with biocide ([4]; with FUELSAVER (FIG. 1)) was “particularly synergistic”, the synergy with biocide ([4]; with Kathon (CMIT/MIT) (FIG. 2)) was “more evident early on in the testing and then appears to taper off with time” and the synergy with biocide ([4]; with the three biocides evaluated) was “Synergy, however, is observed”. For the same compound, the H. resinae count [1, 15] was <1.0E2, the H. resinae count [1, 16] was <1.0E2 and the H. resinae count [1, 17] was <1.0E2. For the same compound, the H. resinae count [1, 18] was <1.0E2, the H. resinae count [1, 19] was <1.0E2 and the H. resinae count [1, 20] was <1.0E2. The H. resinae count [1, 21] was <1.0E2, the H. resinae count [1, 22] was <1.0E2 and the H. resinae count [1, 5] was 4.2E5. The H. resinae count [1, 6] was 2.7E5, the H. resinae count [1, 7] was 3.8E5 and the H. resinae count [1, 8] was 7.7E5. The H. resinae count [1, 9] was 4.4E6, the H. resinae count [1, 10] was 4.2E5 and the H. resinae count [1, 11] was 3.5E5. The H. resinae count [1, 12] was 6.7E5, the H. resinae count [1, 13] was 8.2E5 and the H. resinae count [1, 14] was 6.0E6. For the same compound, the Y. tropicalis count [2, 15] was <1.0E2, the Y. tropicalis count [2, 16] was <1.0E2 and the Y. tropicalis count [2, 17] was <1.0E2. The Y. tropicalis count [2, 18] was <1.0E2, the Y. tropicalis count [2, 19] was <1.0E2 and the Y. tropicalis count [2, 20] was <1.0E2. For the same compound, the Y. tropicalis count [2, 21] was <1.0E2, the Y. tropicalis count [2, 22] was <1.0E2 and the synergy with biocide ([2]; diesel fuel, with BIT, Y. tropicalis) was “evident”. For the same compound, the Y. tropicalis count [2, 5] was 3.3E5, the Y. tropicalis count [2, 6] was 1.1E5 and the Y. tropicalis count [2, 7] was 8.0E5. The Y. tropicalis count [2, 8] was 2.2E6, the Y. tropicalis count [2, 9] was 8.3E6 and the Y. tropicalis count [2, 10] was 3.3E5. For the same compound, the Y. tropicalis count [2, 11] was 2.0E5, the Y. tropicalis count [2, 12] was 6.3E5 and the Y. tropicalis count [2, 13] was 3.0E6. The Y. tropicalis count [2, 14] was 1.2E7, the “Ps. aeruginosa count” value [3, 15] was <1.0E2 and the “Ps. aeruginosa count” value [3, 16] was <1.0E2. The “Ps. aeruginosa count” value [3, 17] was <1.0E2, the “Ps. aeruginosa count” value [3, 18] was <1.0E2 and the “Ps. aeruginosa count” value [3, 19] was <1.0E2. The “Ps. aeruginosa count” value [3, 20] was <1.0E2, the “Ps. aeruginosa count” value [3, 21] was <1.0E2 and the “Ps. aeruginosa count” value [3, 22] was <1.0E2. For the same compound, the synergy with biocide ([3]; diesel fuel, with BIT, against Ps. Aeruginosa (FIG. 3)) was “not significant”, the Ps. aeruginosa count [3, 5] was 1.4E6 and the Ps. aeruginosa count [3, 6] was 1.7E6. The Ps. aeruginosa count [3, 7] was 4.2E6, the Ps. aeruginosa count [3, 8] was 7.3E6 and the Ps. aeruginosa count [3, 9] was 4.8E7. The Ps. aeruginosa count [3, 10] was 1.4E6, the Ps. aeruginosa count [3, 11] was 8.7E5 and the Ps. aeruginosa count [3, 12] was 2.0E6. For the same compound, the Ps. aeruginosa count [3, 13] was 5.7E6 and the Ps. aeruginosa count [3, 14] was 2.3E7.

— patent publication US20100242341A1, “CORROSION AND MICROBIAL CONTROL IN HYDROCARBONACEOUS COMPOSITIONS” (priority 2007, published 2010)
